According to the supplement of paper PMC10307832:

Experiments:
Adavosertib + Trametinib = compound: C=CCn1c(=O)c2cnc(Nc3ccc(N4CCN(C)CC4)cc3)nc2n1-c1cccc(C(C)(C)O)n1 [Adavosertib] + CC(=O)Nc1cccc(-n2c(=O)n(C3CC3)c(=O)c3c(Nc4ccc(I)cc4F)n(C)c(=O)c(C)c32)c1 [Trametinib] (partner 0.02 µM); assay: relative viability (nuclei count vs DMSO), 5 days (fraction); higher = more cells survive
How it was run: (§1)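 Lung cancer cell lines, seeded in 1536-well plates, were treated the following day by pin tool with a single drug or with five library-drug doses (not always all listed) in √10 steps on top of a fixed anchor-drug dose. Cells were fixed and nuclei stained in one step after 5 days, and nuclei were counted. Relative viability is the nuclei count for treated wells divided by that for vehicle wells, reported as medians of duplicate plates.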

Nelarabine + Dasatinib = compound: COc1nc(N)nc2c1ncn2[C@@H]1O[C@H](CO)[C@@H](O)[C@@H]1O [Nelarabine] + Cc1nc(Nc2ncc(C(=O)Nc3c(C)cccc3Cl)s2)cc(N2CCN(CCO)CC2)n1 [Dasatinib] (partner 0.075 µM); assay: as above
How it was run: as §1

Row | Cell Line | relative viability (Adavosertib + Trametinib; first compound 0.01 µM) | relative viability (Adavosertib + Trametinib; first compound 0.03162 µM) | relative viability (Adavosertib + Trametinib; first compound 0.1 µM) | relative viability (Adavosertib + Trametinib; first compound 0.3162 µM) | relative viability (Nelarabine + Dasatinib; first compound 0.01 µM) | relative viability (Nelarabine + Dasatinib; first compound 0.03162 µM) | relative viability (Nelarabine + Dasatinib; first compound 0.1 µM) | relative viability (Nelarabine + Dasatinib; first compound 0.3162 µM) | relative viability (Nelarabine + Dasatinib; first compound 1 µM)
1 | SW 1573 | 0.525 | 0.564 | 0.605 | 0.638 | 0.422 | 0.453 | 0.394 | 0.485 | 0.494
2 | NCI-H727 | 0.427 | 0.383 | 0.396 | 0.385 | 0.318 | 0.418 | 0.295 | 0.249 | 0.44
3 | NCI-H441 | 0.432 | 0.509 | 0.373 | 0.423 | 0.598 | 0.516 | 0.43 | 0.596 | 0.784
4 | LCLC-97TM1 | 0.223 | 0.171 | 0.227 | 0.21 | 1.03 | 0.506 | 0.779 | 0.95 | 0.806
5 | NCI-H2405 | – | 0.63 | 0.721 | 0.671 | 0.208 | 0.244 | 0.233 | 0.21 | 0.229
6 | NCI-H460 | 0.179 | 0.137 | 0.197 | 0.124 | 0.66 | 0.601 | 0.452 | 0.64 | 0.495
7 | NCI-H650 | 0.935 | 1.01 | 0.942 | 1.07 | 0.501 | 0.48 | 0.417 | 0.51 | 0.468
8 | NCI-H661 | 0.686 | 0.621 | 0.68 | 0.486 | 1 | 0.913 | 0.953 | 0.934 | 0.853
9 | LK-2 | 0.759 | 0.823 | 0.701 | 0.84 | 0.337 | – | 0.216 | 0.352 | 0.266
10 | LU99A | 0.624 | 0.61 | 0.634 | 0.464 | 0.522 | 0.506 | 0.36 | 0.51 | 0.797
11 | EPLC-272H | 0.293 | 0.309 | 0.288 | 0.275 | 0.323 | 0.361 | 0.129 | 0.401 | 0.29
12 | NCI-H2087 | 0.217 | 0.204 | 0.207 | 0.2 | 1.14 | 0.718 | 0.526 | 0.981 | 1.09
13 | HCC-827 | 0.533 | 0.567 | 0.492 | 0.522 | 0.431 | 0.241 | 0.166 | 0.295 | 0.361
14 | ABC-1 | – | – | – | – | 0.705 | 0.462 | 0.507 | 0.548 | 0.545
15 | NCI-H520 | 0.797 | 0.65 | 0.634 | 0.629 | 0.245 | 0.22 | 0.2 | 0.214 | 0.207
16 | NCI-H1734 | 0.64 | 0.726 | 0.711 | 0.711 | 0.559 | 0.411 | 0.418 | 0.527 | 0.532
17 | NCI-H2009 | 0.291 | 0.308 | 0.254 | 0.217 | 0.348 | 0.288 | 0.2 | 0.307 | 0.315
18 | NCI-H1993 | 0.42 | 0.449 | 0.535 | 0.561 | 0.692 | 0.505 | 0.553 | 0.665 | 0.635
